This test deals with T1, natural horseradish peroxidase (HRP).
T1 construct: gene PRXC1A
As to the kind of experiment: steady-state kinetics, absorbance of oxidized TMB at […] nm. Type of test: biochemical, Armoracia rusticana. The note with it: H2O2 as co-substrate, HAc-NaAc buffer pH 3.6, 37 °C.

For one molecule, Km results are on record in article PMC11770272, “Surface immobilization of single atoms on heteroatom-doped carbon nanospheres through phenolic-mediated interfacial anchoring for highly efficient biocatalysis” (Chemical Science, 2025).

In the case of `Cc1cc(-c2cc(C)c(N)c(C)c2)cc(C)c1N` [TMB], the Km (as a rule, the concentration of substrate that gives half-maximal velocity) was 1650 µM.
